From US7342028B2, “Medical use for tachykinin antagonists” (Glaxo Group Limited, priority 1991, dated 2008)

Key:
cisplatin-induced emesis = cisplatin-induced emesis in the ferret; format: in vivo; details: for anti-emetic activity: inhibition of cisplatin-induced emesis: cisplatin 200 mg/m^2 i.p., compound 3 mg/kg i.p. at first retch
Procedure: In this model of emesis the onset of retching and vomiting occurs approximately 1 hour after the administration of cisplatin (200 mg/m^2 i.p.). At the first retch in response to cisplatin, the test compound was administered (e.g. i.p., p.o., i.v., s.c., i.c.v.) and its effect on emesis determined by comparison with appropriate controls (e.g. water).

NK1 receptor = NK1 receptor (Homo sapiens, UniProt P25103); assay: NK1 receptor antagonist activity (enantiomer comparison); details: relative to the (2S,3S) enantiomer
NK1 receptor, sequence (P25103 whole entry, species assumed): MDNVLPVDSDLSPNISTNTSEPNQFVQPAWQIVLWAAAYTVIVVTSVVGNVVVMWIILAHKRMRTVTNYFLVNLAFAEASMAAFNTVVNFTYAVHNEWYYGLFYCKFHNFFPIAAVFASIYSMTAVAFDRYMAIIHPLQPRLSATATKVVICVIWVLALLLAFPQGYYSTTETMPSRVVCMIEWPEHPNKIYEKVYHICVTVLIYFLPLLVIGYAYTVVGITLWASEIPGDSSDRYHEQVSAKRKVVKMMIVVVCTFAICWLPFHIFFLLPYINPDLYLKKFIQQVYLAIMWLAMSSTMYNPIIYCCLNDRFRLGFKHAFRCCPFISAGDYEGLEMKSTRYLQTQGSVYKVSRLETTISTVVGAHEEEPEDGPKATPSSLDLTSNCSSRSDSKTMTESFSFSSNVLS

[1] = tested on: emesis induced by morphine; assay: morphine-induced emesis, test compound given simultaneously with the emetogen; format: in vivo, ferret; details: compound 3 mg/kg i.p. simultaneously with morphine 0.5 mg/kg s.c.
[2] = tested on: emesis induced by ipecacuanha; assay: ipecacuanha-induced emesis, test compound given simultaneously with the emetogen; format: in vivo, ferret; details: compound 3 mg/kg i.p. simultaneously with ipecacuanha 2 mg/kg p.o.
[3] = tested on: emesis induced by cyclophosphamide; assay: cyclophosphamide-induced emesis, test compound given simultaneously with the emetogen; format: in vivo, ferret; details: compound 3 mg/kg i.p. simultaneously with cyclophosphamide 200 mg/kg i.p.
[4] = tested on: emesis induced by copper sulphate; assay: copper sulphate-induced emesis, test compound given simultaneously with the emetogen; format: in vivo, ferret; details: compound 3 mg/kg i.p. simultaneously with copper sulphate 40 mg/kg i.p.

COc1ccccc1CN[C@H]1CCCN[C@H]1c1ccccc1 (relative stereo) [(2R,3R) enantiomer, cis-3-(2-methoxybenzylamino)-2-phenyl piperidine]
anti-emetic activity: inhibition of cisplatin-induced emesis (cisplatin-induced emesis; 3 mg/kg): inactive | fold less active as an NK1 receptor antagonist than the (2S,3S) enantiomer (NK1 receptor): 1000 fold

COc1ccccc1CN[C@H]1CCCN[C@H]1c1ccccc1 (relative stereo) [(2S,3S) enantiomer, cis-3-(2-methoxybenzylamino)-2-phenyl piperidine]
anti-emetic activity: inhibition of cisplatin-induced emesis (cisplatin-induced emesis; 3 mg/kg): inhibited

COc1ccccc1CNC1C2CCN(C2)C1C(c1ccccc1)c1ccccc1 (stereo not drawn) [Example 1, (exo,exo)-2-(Diphenylmethyl)-N-[(2-methoxyphenyl)methyl]-1-azabicyclo[2.2.1]heptan-3-amine]
inhibition of cisplatin-induced emesis (cisplatin-induced emesis; compound 5 mg/kg i.p.): inhibited

COc1ccccc1CN[C@H]1CCCN[C@H]1c1ccccc1 (racemic) [(±) cis-3-(2-methoxybenzylamino)-2-phenyl piperidine]
anti-emetic activity against morphine [1]: exhibited anti-emetic activity | anti-emetic activity against ipecacuanha [2]: exhibited anti-emetic activity | anti-emetic activity against cyclophosphamide [3]: exhibited anti-emetic activity | anti-emetic activity: inhibition of cisplatin-induced emesis (cisplatin-induced emesis): exhibited anti-emetic activity | anti-emetic activity against copper sulphate [4]: exhibited anti-emetic activity
